Where two headings read alike, the source gives them in different places.
Key:
[1] = system: complex II+III (succinate cytochrome c oxidoreductase); experiment: Complex II+III (succinate cytochrome c oxidoreductase) activity, spectrophotometric; type: biochemical; conditions: 100 μM drug; pig brain mitochondria; mean ± SD
Method: (§1) Pig brains were obtained from a slaughterhouse. Mitochondrial fraction isolation and purification from brain cortex were performed as previously described. Briefly, grey matter from pig brains was homogenized and crude mitochondrial fraction was isolated and then centrifuged on the sucrose gradient to obtain purified mitochondrial fraction. The freshly purified mitochondria were kept on ice until the assays were performed and were used for measurements of the mitochondrial oxygen consumption rate, measurements of ATP and ROS formation. Frozen mitochondria (stored at −70 °C) were used for the following enzyme activity measurements: ETC complexes, citrate synthase (CS) and malate dehydrogenase (MDH) activity.
Ultrasonication and incubation of mitochondria with the tested drugs for 30 min at 30 °C was performed before measurement with a corresponding drug-free control (DMSO) for every measurement. Mitochondrial enzymes activities were determined spectrophotometrically as absorbance using a GENESYS 180 UV-Vis Spectrophotometer (Thermo Fisher Scientific, Waltham, MA, USA).
The activity of complex II+III was measured with an antimycin A-sensitive cyt c reduction at 550 nm for 3 min, and it was initiated by the addition of cyt c. The medium consisted of KH2PO4, EDTA, KCN and rotenone. The final protein concentration was 50 µg/mL and final drugs concentrations 2.5, 5, 10, 50 and 100 µM. Drug-free control (DMSO) was used as a control for each measurement.

[2] = biological target: T1, MAO-A (Sus scrofa, UniProt Q6Q2J0); experiment: MAO-A activity, radiolabeled [3H]serotonin substrate; type: biochemical, pig; conditions: for MAO-A Inhibition (type): 0.1–300 µM; for MAO-A Hillslope / MAO-A Residual Activity: mean
T1 construct: from tissue; host or cells: pig brain mitochondria
T1 sequence (Q6Q2J0 1-527): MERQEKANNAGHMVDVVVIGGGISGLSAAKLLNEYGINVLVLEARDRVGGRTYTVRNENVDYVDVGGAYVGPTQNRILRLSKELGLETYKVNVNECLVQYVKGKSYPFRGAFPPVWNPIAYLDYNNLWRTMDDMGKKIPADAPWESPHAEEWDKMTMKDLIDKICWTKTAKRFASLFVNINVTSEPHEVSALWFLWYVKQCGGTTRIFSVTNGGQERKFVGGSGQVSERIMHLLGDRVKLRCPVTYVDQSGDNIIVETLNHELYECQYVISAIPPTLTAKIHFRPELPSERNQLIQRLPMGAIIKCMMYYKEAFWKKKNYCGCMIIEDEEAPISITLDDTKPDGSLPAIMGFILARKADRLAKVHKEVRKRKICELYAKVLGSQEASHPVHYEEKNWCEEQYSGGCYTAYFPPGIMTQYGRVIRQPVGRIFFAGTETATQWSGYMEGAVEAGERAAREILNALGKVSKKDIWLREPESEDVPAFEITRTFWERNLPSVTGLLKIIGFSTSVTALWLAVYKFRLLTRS
Method: as §1
Mitochondria in KH buffer at final concentration of 800 µg/mL were preincubated with the tested drugs in a final concentration range of 0.1–300 µM for 60 min at 37 °C. For each measurement, there was a corresponding drug-free control (DMSO). Radiolabeled substrates ([^3H]serotonin for MAO-A and [^14C]PEA for MAO-B) were added to initiate the reaction. The reaction was carried out at 37 °C for 20 min for MAO-A and for 1 min for MAO-B, and the reaction was stopped by hydrochloric acid. The radioactivity of the organic phases of the extracts were measured by liquid scintillation counting (LS 6000IC, Beckman Instruments, Inc., Fullerton, CA, USA).
(§2) The inhibition of respiration rate and MAO activity were analyzed by A four-parameter logistic regression with Prism software (GraphPad Software, San Diego, CA, USA) was used to analyze the respiratory rate inhibition and activity of MAO. […] The IC50 represents the drug concentration required to inhibit the difference between the baseline and the residual value of the mitochondrial oxygen flux or MAO activity by 50%.

[3] = system: complex I-linked respiration, pig brain mitochondria; experiment: Complex I-linked mitochondrial respiration, high-resolution respirometry; type: biochemical; conditions: for effect on complex I-linked respiration (in words): titration 0.125–100 µM
Method: as §1
The mitochondrial oxygen consumption rate was measured by high-resolution respirometry using Oxygraph-2k (Oroboros Instruments Corp, Innsbruck, Austria). The final protein concentration was 0.05–0.14 mg/mL and the reaction mixture consisted of 2 mM malate, 5 mM pyruvate, 1.25 mM ADP and […] for complex I-linked respiration; 1.25 mM ADP, 0.75 mM MgCl2, 1 µM rotenone and 10 mM succinate for complex II-linked respiration. The following […] simultaneous measurements were assessed: a titration with the drug to the final drug concentrations of 0.125–100 µM in one chamber and a titration with a drug-free control (DMSO) in the second oxygraph chamber.
The respiration rate was expressed as pmol O2 consumed/second/mg of a protein.
as §2

[4] = system: complex I-linked ATP content, pig brain mitochondria; experiment: Complex I-linked ATP content, bioluminescence; type: biochemical; conditions: for complex I-linked ATP content (relative to control = 100%): mean ± SD
Method: as §1
The following protocol has been modified and optimized. An ATP Bioluminescence Assay Kit CLS II was used to measure ATP content and kinetics. The luminescence was measured using FluoroMax-3 (Jobin Yvon, Edison, NJ, USA) at 562 nm. Standard curve for ATP determination was prepared from ATP standard in the range from 0 to 600 nM. Tested substances were used at final concentrations 10, 50 and 100 µM, with drug-free control (DMSO) for each measurement and the final protein concentration was 50 µg/mL.
Mitochondria were incubated for 30 min on ice with the MiR05 buffer, tested substances and mitochondria. Consequently, the substrate mix was added, consisting of 5 mM malate and 5 mM pyruvate (for complex I) or 5 mM succinate and 1 μM rotenone (for complex II), 60 μM ADP and 0.75 mM MgCl2·6H2O and incubated for 30 min in 30 °C. Reaction was stopped by heating vials at 100 °C for 2 min. Background luminescence was measured. In total, 230 µL of luciferase reagent was added and total ATP° content for complex I and complex II+III was determined by measuring the luminescence for 1 min. Drug-free control (DMSO) was part of each measurement.

[5] = mean ± SEM, 4 measurements, read-out: MAO-A IC50

SMILES | complex II+III activity (relative to control = 100%) [1] | MAO-A Inhibition (type) [2] | IC50 [2, 5] | MAO-A Hillslope ([2]; 4 measurements) | MAO-A Residual Activity ([2]; 4 measurements) | effect on complex I-linked respiration (in words) [3] | complex I-linked ATP content (relative to control = 100%) ([4]; 10 μM drug) | complex I-linked respiration rate (relative to control = 100%) ([3]; 50 μM drug, mean ± SD) | residual activity of complex I-linked respiration ([3]; four-parameter logistic fit, mean ± SEM) | IC50 ([3]; four-parameter logistic fit, mean ± SEM, listed as VOR) | complex I-linked ATP content (relative to control = 100%) ([4]; 100 μM drug) | IC50 [2] | effect on complex I-linked ATP content (in words) ([4]; 10, 50 and 100 µM)
COc1ccc2cccc(CCNC(C)=O)c2c1 [agomelatine] | 94.9 ± 4.3% | partial | 8.2 µM | 3.40 | 0.190 rel.u. | did not affect complex I-linked respiration at all | 106.4 ± 4.0% | – | – | – | – | – | –
Cc1ccc(Sc2ccccc2N2CCNCC2)c(C)c1 [vortioxetine] | 43.9 ± 1.2% | partial | 7.33 µM | 1.76 | 0.109 rel.u. | full inhibitor of complex I-linked respiration | – | 22.5 ± 7.1% | 4.7% | 10.5 µM | 119.0 ± 10.6% | – | –
CNC1(c2ccccc2Cl)CCCCC1=O (stereo not drawn) [ketamine] | 93.6 ± 2.6% | partial | – | 1.50 | 0.259 rel.u. | inhibited complex I-linked respiration very weakly | – | – | – | – | – | 10.4 µM | no significant effect

From publication PMC9697131, “Agomelatine, Ketamine and Vortioxetine Attenuate Energy Cell Metabolism—In Vitro Study” (International Journal of Molecular Sciences, 2022)
